Reference: patent publication US11202773B2, “Locally bioavailable drugs” (UNIVERSITY OF HOUSTON SYSTEM, priority 2015, dated 2021)

Key:
mouse COX-2 = target: T1, mouse COX-2 (Mus musculus, UniProt Q05769); assay: COX-2 activity (PGD2/PGE2 production) in LPS-induced Raw264.7 cells; type: cell-based; settings: for IC50: 0.1 μg/mL LPS, 14 hours co-incubation; for PGD2 production by Raw264.7 cells: 1 μM compound, result in words; for PGD2 production by Raw264.7 cells / PGD2 production, % of control: LPS, 14 hours
T1 construct: Raw264.7 is a mouse macrophage cell line which expresses a high level of COX-2 protein upon lipopolysaccharide (LPS) induction; endogenous in cells; host or cells: Raw264.7 (LPS-induced)
T1 sequence (Q05769 18-604): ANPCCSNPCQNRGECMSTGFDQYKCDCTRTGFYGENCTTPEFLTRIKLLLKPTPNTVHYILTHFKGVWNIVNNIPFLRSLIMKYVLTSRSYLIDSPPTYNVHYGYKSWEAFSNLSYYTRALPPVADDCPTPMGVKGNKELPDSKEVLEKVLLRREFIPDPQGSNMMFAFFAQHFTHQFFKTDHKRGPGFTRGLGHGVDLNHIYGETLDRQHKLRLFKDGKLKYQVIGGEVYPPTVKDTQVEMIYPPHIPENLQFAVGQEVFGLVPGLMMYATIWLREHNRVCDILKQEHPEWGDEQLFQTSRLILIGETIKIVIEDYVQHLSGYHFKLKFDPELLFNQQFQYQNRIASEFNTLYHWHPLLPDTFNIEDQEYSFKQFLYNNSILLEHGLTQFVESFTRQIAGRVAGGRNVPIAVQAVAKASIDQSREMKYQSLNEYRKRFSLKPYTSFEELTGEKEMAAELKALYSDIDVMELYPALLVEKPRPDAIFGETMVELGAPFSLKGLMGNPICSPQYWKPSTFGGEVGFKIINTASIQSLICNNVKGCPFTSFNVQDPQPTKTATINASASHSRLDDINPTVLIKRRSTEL
Procedure: First, the inhibitory effects of the new synthesized compounds on COX-2 were assayed in two cell lines: Raw264.7 cells and HCA-7 cells. Raw264.7 is a mouse macrophage cell line which expresses a high level of COX-2 protein upon lipopolysaccharide (LPS) induction. […] The concentration of prostaglandins (both PGD2 and PGE2) accumulated in the cell culture medium can be employed as an indicator of COX-2 activity. HCA-7 is a human colon cancer cell line in which COX-2 protein is constitutively expressed. Briefly, the cells were pre-incubated with different concentrations of the new compounds for 30 min, and then 10 μM A23187 (a calcium ionophore) was added to release membrane-bound arachidonic acid (the natural substrate of COX-2) to the cytosolic domain. The system was incubated for another 30 minutes and PGE2 concentrations in the culture medium were determined. In both cell lines, higher PGD2/PGE2 concentrations in the media meant more COX-2 activity.

human COX-2 = target: T2, human COX-2 (Homo sapiens, UniProt P35354); assay: In vitro enzyme assay, recombinant human COX-2 (PGE2 production); type: biochemical; settings: for IC50: read-out: IC50 against recombinant human COX-2; for Inhibition of COX-2 enzyme (PGE2 production, FIG. 3A): result in words
T2 sequence (P35354 18-604): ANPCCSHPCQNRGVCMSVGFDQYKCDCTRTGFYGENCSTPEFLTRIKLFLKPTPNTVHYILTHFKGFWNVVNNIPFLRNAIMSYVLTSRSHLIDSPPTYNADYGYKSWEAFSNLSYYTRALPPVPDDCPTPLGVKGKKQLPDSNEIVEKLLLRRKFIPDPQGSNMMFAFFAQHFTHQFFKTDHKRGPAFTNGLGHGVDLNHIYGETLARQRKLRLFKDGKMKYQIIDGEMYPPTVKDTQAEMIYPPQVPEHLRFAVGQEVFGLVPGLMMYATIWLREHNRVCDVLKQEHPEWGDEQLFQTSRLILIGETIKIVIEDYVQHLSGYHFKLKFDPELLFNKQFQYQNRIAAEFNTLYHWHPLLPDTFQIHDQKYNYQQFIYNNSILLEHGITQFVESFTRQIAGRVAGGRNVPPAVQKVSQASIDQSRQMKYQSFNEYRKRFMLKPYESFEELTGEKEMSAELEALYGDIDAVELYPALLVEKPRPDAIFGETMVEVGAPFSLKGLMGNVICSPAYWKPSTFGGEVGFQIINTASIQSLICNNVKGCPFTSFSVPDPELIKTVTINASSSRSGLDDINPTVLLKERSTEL
Description: FIG. 3A is a bar graph illustration of PGE2 production by recombinant human COX-2 enzyme in the presence of the new compounds. Less PGE2 production means inhibition of COX-2 enzyme.
FIG. 3B is a bar graph illustration of PGE2 production by recombinant human COX-2 enzyme in the presence of the metabolites of the new compounds. Less PGE2 production means inhibition of COX-2 enzyme.

recombinant human COX-1 = recombinant human COX-1 (Homo sapiens, UniProt P23219); assay: In vitro enzyme assay, recombinant human COX-1; type: biochemical; settings: read-out: IC50 against recombinant human COX-1
human liver microsomes = assay: Glucuronidation by human liver microsomes; type: in vitro ADME
Procedure: (§1) FIG. 5D is a bar graph illustrating in vitro metabolism of phenolics. Glucuronidation rates of 6a1-6a4 by human liver and intestinal microsomes. Additional metabolic rates of various locally bioavailable COX-2 inhibitors are in Table 4. […]. The incubation systems were: for glucuronidation, 0.88 mM magnesium chloride (MgCl2), 4.4 mM saccharolactone, 0.022 mg/mL alamethicin, 3.5 mM uridine 5′-diphospho-glucuronic acid (UDPGA), 10 μM substrates and different concentrations of microsomes in 50 mM potassium phosphate buffer (pH 7.4); for sulfation, 10 mM dithiothreitol (DTT), 5 mM MgCl2, 100 μM 3′-phosphoadenosine-5′-phosphosulfate (PAPS),10 μM substrate and different concentrations of S9 fractions in 50 mM potassium phosphate buffer (pH 7.4).
(§2) In vitro tools were employed to help predict the in vivo metabolism rates of the COX-2 inhibitors that are phenolics. The microsomes and S9 fractions prepared from colon or liver were used to determine the in vivo glucuronidation and sulfation rates of the phenolic compounds, respectively. By employing microsomes and S9 fractions prepared from both rats and humans, it could be determined if the results obtained in the rat model could be reasonably extrapolated to humans. In these experiments, raloxifene and genistein, two phenolic compounds which undergo extensive first-pass metabolism, were selected as controls.

[1] = test system: human intestine microsomes; assay: Glucuronidation by human intestine microsomes; type: in vitro ADME
Procedure: as §1, §2

Raw264.7 cells = assay: Metabolism of the phenolics by Raw264.7 cells; type: in vitro ADME, mouse; settings: 1 μM compound, 14 hours
Procedure: FIG. 4A is a bar graph illustration of the metabolism of the phenolics by Raw264.7 cells. Raw264.7 cells were incubated with 0.1 μg/mL LPS and 1 μM 6a1, 6a2 or 6a3, respectively. 14 hours later the concentrations of PGD2, the phenolics (i.e., aglycones, solid bars), and their phase II metabolites (open bars for glucuronides and shade bars for sulfates) were determined in the medium. Less PGD2 production means inhibition of COX-2 enzyme.
Glucuronidation of 6a1 in Raw264.7 cells was not influenced by LPS (FIG. 4B). […] The results of these experiments initially indicate that when characterizing inhibitory effects of the phenolics on COX-2, the importance of metabolic stability should be brought into consideration. This could be why phenolics were not considered to be active against COX-2 in many published reports using cellular COX-2 assays.

Sequence of recombinant human COX-1 (P23219 24-599): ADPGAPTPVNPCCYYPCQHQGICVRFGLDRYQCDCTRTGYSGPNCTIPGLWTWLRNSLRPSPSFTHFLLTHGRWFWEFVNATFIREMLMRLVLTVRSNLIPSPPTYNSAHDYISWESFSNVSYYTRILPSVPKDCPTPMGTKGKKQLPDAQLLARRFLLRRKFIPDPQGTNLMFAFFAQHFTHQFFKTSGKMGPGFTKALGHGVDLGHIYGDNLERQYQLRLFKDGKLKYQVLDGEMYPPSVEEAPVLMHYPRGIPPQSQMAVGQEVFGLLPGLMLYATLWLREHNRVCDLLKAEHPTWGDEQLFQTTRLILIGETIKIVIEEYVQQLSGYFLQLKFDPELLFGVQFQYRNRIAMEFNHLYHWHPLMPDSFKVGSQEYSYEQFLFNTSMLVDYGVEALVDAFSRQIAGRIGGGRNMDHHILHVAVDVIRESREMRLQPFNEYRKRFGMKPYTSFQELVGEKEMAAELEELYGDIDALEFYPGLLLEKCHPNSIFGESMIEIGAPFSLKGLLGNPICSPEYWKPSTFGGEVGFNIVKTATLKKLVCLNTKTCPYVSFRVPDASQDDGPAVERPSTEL

SMILES | IC50 (mouse COX-2) [µM] | PGD2 production by Raw264.7 cells (mouse COX-2) | IC50 (human COX-2) [nM] | Inhibition of COX-2 enzyme (PGE2 production, FIG. 3A) (human COX-2) | IC50 (recombinant human COX-1) [nM] | Glucuronidation rates by liver microsomes (Mean) (human liver microsomes) [pmol/mg/min] | Glucuronidation rates by intestine microsomes (Mean) [1] [pmol/mg/min] | Form recovered in medium at the end of incubation (Raw264.7 cells) | PGD2 production, % of control (mouse COX-2; 1 μM 6a1, with glucuronidase (200 units/mL)) | PGD2 production, % of control (mouse COX-2; 1 μM 6a1, without glucuronidase)
Cc1ccc(-c2cc(COc3cccc(O)c3)nn2-c2ccc(S(N)(=O)=O)cc2)cc1 [Compound 6a2] | 4.62 ± 1.34 | only slightly reduced | 201 | effective inhibitors | 27200 | 1512 | 924 | recovered exclusively as their glucuronides |  | 
Cc1ccc(-c2cc(COc3ccc(O)cc3)nn2-c2ccc(S(N)(=O)=O)cc2)cc1 [Compound 6a3] | 0.019 ± 0.002 | thoroughly inhibited | 1080 | effective inhibitors | 38200 | 60 | 45 | stayed as aglycone |  | 
Cc1ccc(-c2cc(COc3ccccc3O)nn2-c2ccc(S(N)(=O)=O)cc2)cc1 [Compound 6a1] | 1.39 ± 0.384 | only slightly reduced | 118 | effective inhibitors | 5130 | 11576 | 2786 | recovered exclusively as their glucuronides | 24.3 % of control | 67.5 % of control
